US20060193881A1, “Method and compositions for attracting mosquitoes employing (R)-(-) isomers of 1-alken-3-ols” (Bedoukian Research, Inc., priority 2005, published 2006)

Columns and labels:
Type in all cases: in vivo
[1] = test system: mosquitoes; assay: John W. Hock fan-driven CO2 trap field test, small amount (R) vs large amount racemic, Danbury Conn.; conditions: 14 days; for average mosquitoes caught: CO2 150 ml/min
Method: A test similar to example 5 was conducted in Danbury Conn. using fan driven-traps manufactured by John W. Hock Company in Gainesville Fla. using 150 ml/min CO2. To compare the attractiveness of a large amount of racemic 1-octen-3-ol to a small amount of (R)-(-)-1-octen-3-ol, one lure contained 50 mg of (R)-(-)-1-octen-3-ol diluted in 1.5 ml diethyl phthalate, releasing 1.5 mg/day or less was evaluated against a lure containing 1660 mg of racemic 1-octen-3-ol (830 mg of each enantiomer) diluted in 1.5 ml of diethyl phthalate, and releasing approximately 40 mg of 1-octen-3-ol/day. After rotation between the two traps over 14 days, the lure with the 1660 mg of racemic octenol caught an average of 9.4 mosquitoes, while the lure containing 50 mg of (R)-(-)-1-octen-3-ol caught an average of 11.8 mosquitoes, representing an increase of 26%.

[2] = test system: mosquitoes; assay: Mosquito Magnet Pro trap field test of 1-decen-3-ol enantiomers, Florida; conditions: 1 gram in fibrous lure; for total mosquitoes caught: lures rotated between traps over nine days
Method: The tests were conducted in Florida using Mosquito Magnet Pro mosquito traps manufactured by American Biophysics, rotating the lures between traps over a period of nine days, using 1 gram of each test material in a fibrous lure of the type normally used in the traps.

[3] = test system: mosquitoes; assay: CO2 fan trap (John W. Hock model 1012) field test with wax lures, Danbury, Conn.; conditions: wax lure, approx. 0.17 mg/hour release, CO2 approx. 140 ml/minute, average of four three-day cycles
Method: The following tests were conducted in Connecticut in September 2004. Mosquito traps model 1012 manufactured by John W. Hock Company in Gainesville, Fla. were used in these experiments. The traps use a stream of CO2 directed in the vicinity of a collection bag, with a fan used to blow mosquitoes into the bag. The light supplied with the trap was turned off. The traps were spaced 65-70 feet apart at the edge of a wetland in Danbury, Conn., at least 25 feet from any buildings. The (R) and (S)-1-octen-3-ol was incorporated into a wax lure of the type manufactured by BioSensory, Inc. and placed near a stream of CO2 which was being released at a rate of approximately 140 ml/minute. The traps were operated from approximately 4:00PM until 9:00AM the next day. Daytime temperatures were 70-75° F. during the trials. Average weight loss from the wax lures during the test was approximately 4 mg/day, or 0.17 mg/hour. Three traps were used, with either (R)-1-Octen-3-ol, (S)-1-Octen-3-ol, or no treatment, rotated among the traps over a three-day cycle. Four complete cycles were performed and the results for each treatment were averaged.
The traps with no attractant were considered as the baseline catch of mosquitoes and the results of the catches with the isomers were compared to this baseline value.

[4] = test system: mosquitoes; assay: Mosquito Magnet Liberty trap field test with porous frit, Danbury, Conn.; conditions: 1 gram on porous frit, 20-30 mg/day release
Method: Tests were conducted with the Mosquito Magnet Liberty model traps manufactured by American Biophysics Corp. Traps were spaced 65-70 feet apart at the edge of a wetland in Danbury, Conn., at least 25 feet from any buildings. 1 gram of test chemical was added to a clean porous frit of the type normally used in the trap, releasing approximately 20-30 mg/day. In the first test, racemic 1-octen-3-ol and (R)-(-)-1-octen-3-ol were rotated among four traps over 8 days. In the second test, (S)-(+)-1-octen-3-ol and no treatment were rotated between three traps over nine days.

[5] = test system: mosquitoes; assay: Mosquito Magnet Pro trap field test with or without ammonia source, Gainesville, Fla.; conditions: lure with 230 mg (R)-(-)-1-octen-3-ol; traps producing carbon dioxide and heat; twenty-day cycle
Method: The test was conducted in Gainesville, Fla. using Mosquito Magnet Pro model mosquito traps manufactured by American Biophysics Corp. that produced carbon dioxide and heat. The traps were provided with either lures having 230 mg (R)-(-)-1-octen-3-ol isomer or lures with 230 mg (R)-(-)-1-octen-3-ol isomer in combination with a source of ammonia provided by a lure containing ammonium bicarbonate in a controlled release polymer matrix, Bactrocera (Dacus) olae, Product code BF L080, provided by AgriSense-BCS Limited, Taffs Mead Road, Treforest Industrial Estate, Pontypridd, CF37 5SU, UK. The traps were rotated between the locations for a twenty-day cycle.

[6] = test system: mosquitoes; assay: Mosquito Magnet Liberty trap field test with or without ammonium bicarbonate lure, Redding, Conn.; conditions: lure with 800 mg (R)-(-)-1-octen-3-ol in waxy carrier; rotated daily for 15 days
Method: A test similar to Example 3 was conducted in Redding, Conn., employing Mosquito Magnet Liberty traps rotated daily for 15 days. One trap was provided with a lure containing 470 mg (R)-(-)-1-octen-3-ol isomer in a waxy carrier plus 5 grams of ammonium bicarbonate provided by a lure containing ammonium bicarbonate in a controlled release polymer matrix, provided by […]-BCS Limited ([…]-BCS Limited […] Road, Treforest Industrial Estate, Pontypridd, CF37 5SU UK) and the second trap was provided with a lure containing 800 mg (R)-(-)-1-octen-3-ol isomer in the waxy carrier. The trap with the 800 mg (R)-(-)-1-octen-3-ol isomer attracted an average of 3.8 mosquitoes daily whereas the traps with only 470 mg (R)-(-)-1-octen-3-ol isomer plus the ammonium carbonate attracted average of 6.9 mosquitoes daily, an average increase of about 82%.

[7] = test system: mosquitoes; assay: Mosquito Magnet Liberty trap field test, effect of (S) isomer on (R) isomer, Danbury Conn.; conditions: 14 days
Method: A test to compare the effect of the presence of (S)-(+)-1-octen-3-ol on the efficacy of (R)-(-)-1-octen-3-ol was conducted in Danbury Conn. One lure contained 200 mg of (R)-(-)-1-octen-3-ol diluted in diethyl phthalate to slow release to under 1.7 mg/day. The other lure was identical except that it also contained 200 mg of (S)-(+)-1-octen-3-ol (equivalent to 400 mg of racemic 1-octen-3-ol). The lures were rotated over 14 days between two American Biophysics Mosquito Magnet Liberty traps. The lure containing the 200 mg of (R)-(-)-1-octen-3-ol plus 200 mg (S)-(+)-1-octen-3-ol caught an average of 5.6 mosquitoes/day, while the lure containing 200 mg of (R)-(-)-1-octen-3-ol caught an average of 8.1 mosquitoes daily, representing an increase in efficacy of 45%.

C=CC(O)CCCCC (racemic) [racemic octenol, 1-octen-3-ol, reference compound]
average mosquitoes caught ([1]; lure with 1660 mg racemic in 1.5 ml diethyl phthalate, approx. 40 mg/day release): 9.4 mosquitoes

C=C[C@H](O)CCCCCCC [(R)-(-)-1-decen-3-ol]
total mosquitoes caught [2]: 89 mosquitoes | improvement in catch vs (S)-(+)-1-decen-3-ol ([2]; nine days): 89%

C=C[C@H](O)CCCCC [(R)-(-)-1-octen-3-ol]
more mosquitoes captured than the baseline (traps with no attractant) [3]: 88% | more mosquitoes caught than trap with 50:50 racemic mixture of 1-octen-3-ol ([4]; first test, four traps over 8 days): 18% | average number of mosquitoes attracted daily [5]: 14 mosquitoes | average mosquitoes attracted daily [6]: 3.8 mosquitoes daily | increase in efficacy vs lure also containing 200 mg (S)-(+)-1-octen-3-ol ([7]; 200 mg (R) isomer): 45% | average mosquitoes caught ([7]; lure with 200 mg (R)-(-)-1-octen-3-ol in diethyl phthalate, release under 1.7 mg/day): 8.1 mosquitoes daily | increase in catch vs lure with 1660 mg racemic octenol ([1]; 50 mg (R) isomer): 26% | average mosquitoes caught ([1]; lure with 50 mg (R) in 1.5 ml diethyl phthalate, 1.5 mg/day or less release): 11.8 mosquitoes

C=C[C@@H](O)CCCCCCC [(S)-(+)-1-decen-3-ol, reference compound]
total mosquitoes caught [2]: 47 mosquitoes

C=C[C@@H](O)CCCCC [(S)-(+)-1-octen-3-ol, reference compound]
more mosquitoes captured than the baseline (traps with no attractant) [3]: 35% | fewer mosquitoes caught than the trap with no attractant ([4]; second test, three traps over nine days): 37%
